Measured values from US20140079636A1, “TARGETED THERAPEUTICS” (priority 2012, published 2014).

system: MCF-7 breast cancer cells; experiment: Mouse xenograft efficacy in an MCF-7 breast cancer model; type: in vivo; conditions: 150 or 100 mg/kg/1×wk IV, versus irinotecan alone or ganetespib + irinotecan
Procedure: MCF-7 breast cancer cells were purchased from ATCC. […] Fetal bovine serum was then be added to the medium. The final concentration of fetal bovine serum was 10%. Cells were cultured at 37° C. and 5% CO2.
Mice that were not put on treatment were euthanized. Animals were sourced through CRL (Wilmington, Mass.).

Row | SMILES | Tumor growth suppression (tumor volume)
1 | CCc1c2c(nc3ccc(OC(=O)N4CCC(CCn5ccc6cc(-n7c(O)nnc7-c7cc(C(C)C)c(O)cc7O)ccc65)CC4)cc13)-c1cc3c(c(=O)n1C2)COC(=O)[C@]3(O)CC [SDC-TRAP-0063, 4,11-diethyl-4-hydroxy-3,14-dioxo-3,4,12,14-tetrahydro-1H-pyrano[3′,4′:6,7]indolizino[1,2-b]quinolin-9-yl 4-(2-(5-(3-(2,4-dihydroxy-5-isopropylphenyl)-5-hydroxy-4H-1,2,4-triazol-4-yl)-1H-indol-1-yl)ethyl)piperidine-1-carboxylate] | greater tumor growth suppression than effector moiety irinotecan alone or unconjugated binding moiety ganetespib and effector moiety irinotecan administered together

biological target: T1, Hsp90α (Homo sapiens, UniProt P07900); experiment: Hsp90α binding assay (fluorescence polarization, FITC-labeled geldanamycin); conditions: read-out: Hsp90 binding EC50
T1 construct: purchased BPS Bioscience 50294
Procedure: An Hsp90^α fluorescence assay kit from BPS Bioscience (Cat #50294) containing Hsp90 recombinant enzyme, FITC-labeled geldanamycin, assay buffer and a low binding 384-well plate was used to assay Hsp90^α binding. Dithiothreitol (DTT)(Cat #D0643) and bovine serum albumin (BSA)(Cat #A2153) were obtained from Sigma-Aldrich. Fluorescence polarization was measured using a PHERAstar microplate reader from BMG LABTECH GmbH, Ortenherg, Germany.
The compounds were diluted to 1 mM in DMSO and loaded into a compound dilution plate to make 3-fold dilutions yielding a total of 8 concentrations. 1 µL of compound was transferred from the dilution plate to the low binding assay plate provided in the assay kit. 5 mL of Hsp90^□ binding solution was prepared having a final concentration of 7 ng/µL Hsp90^□, 5 nM FITC-labeled geldanamycin, 2 mM DTT and 0.1 mg/mL BSA. 49 μL of binding solution was added to each microplate well, incubated at room temperature for 1 hour, then read using the PHERAstar microplate reader. The high control sample contained no compound plus Hsp90^α; the low control sample contained no compound and no Hsp90^α. […] The IC50 was calculated using GraphPad Prism 4 software.

Row | SMILES | EC50
2 | CCc1c2c(nc3ccc(OC(=O)N4CCN(c5ccc(-n6c(O)nnc6-c6cc(C(C)C)c(O)cc6O)cc5)CC4)cc13)-c1cc3c(c(=O)n1C2)COC(=O)C3(O)CC (stereo not drawn) [SDC-TRAP-0045, 4,11-diethyl-4-hydroxy-3,14-dioxo-3,4,12,14-tetrahydro-1H-pyrano[3′,4′:6,7]indolizino[1,2-b]quinolin-9-yl 4-(4-(3-(2,4-dihydroxy-5-isopropylphenyl)-5-hydroxy-4H-1,2,4-triazol-4-yl)phenyl)piperazine-1-carboxylate] | 96.6 nM
3 | CCc1c2c(nc3ccc(OC(=O)N4CCN(Cc5ccc(-n6c(O)nnc6-c6cc(C(C)C)c(O)cc6O)cc5)CC4)cc13)-c1cc3c(c(=O)n1C2)COC(=O)C3(O)CC (stereo not drawn) [SDC-TRAP-0046, 4,11-diethyl-4-hydroxy-3,14-dioxo-3,4,12,14-tetrahydro-1H-pyrano[3′,4′:6,7]indolizino[1,2-b]quinolin-9-yl 4-(4-(3-(2,4-dihydroxy-5-isopropylphenyl)-5-hydroxy-4H-1,2,4-triazol-4-yl)benzyl)piperazine-1-carboxylate] | 102 nM
4 | CCc1c2c(nc3ccc(OC(=O)N4CCC(CCn5ccc6cc(-n7c(O)nnc7-c7cc(C(C)C)c(O)cc7O)ccc65)CC4)cc13)-c1cc3c(c(=O)n1C2)COC(=O)[C@]3(O)CC [SDC-TRAP-0063, 4,11-diethyl-4-hydroxy-3,14-dioxo-3,4,12,14-tetrahydro-1H-pyrano[3′,4′:6,7]indolizino[1,2-b]quinolin-9-yl 4-(2-(5-(3-(2,4-dihydroxy-5-isopropylphenyl)-5-hydroxy-4H-1,2,4-triazol-4-yl)-1H-indol-1-yl)ethyl)piperidine-1-carboxylate] | 157 nM
5 | CCc1c2c(nc3ccc(O)cc13)-c1cc3c(c(=O)n1C2)COC(=O)[C@@]3(CC)OC(=O)N1CCC(CCn2ccc3cc(-n4c(O)nnc4-c4cc(C(C)C)c(O)cc4O)ccc32)CC1 [SDC-TRAP-0064, (S)-4,11-diethyl-9-hydroxy-3,14-dioxo-3,4,12,14-tetrahydro-1H-pyrano[3′,4′:6,7]indolizino[1,2-b]quinolin-4-yl 4-(2-(5-(3-(2,4-dihydroxy-5-isopropylphenyl)-5-hydroxy-4H-1,2,4-triazol-4-yl)-1H-indol-1-yl)ethyl)piperidine-1-carboxylate] | 122 nM
6 | COc1cc(O)c(-c2nnc(C(=O)NC(C)C)n2-c2ccc(CN3CCC(C(=O)Nc4cccc5c4CN(C4CCC(=O)NC4=O)C5=O)CC3)cc2)cc1C(C)C (stereo not drawn) [SDC-TRAP-0115, N-(2-(2,6-dioxopiperidin-3-yl)-1-oxoisoindolin-4-yl)-1-(4-(3-(2-hydroxy-5-isopropyl-4-methoxyphenyl)-5-(isopropylcarbamoyl)-4H-1,2,4-triazol-4-yl)benzyl)piperidine-4-carboxamide] | 203 nM
7 | CC(C)c1cc(-c2nnc(O)n2-c2ccc(CC3CCN(CC(=O)Nc4cccc5c4CN(C4CCC(=O)NC4=O)C5=O)CC3)cc2)c(O)cc1O (stereo not drawn) [SDC-TRAP-0116, 2-(4-(4-(3-(2,4-dihydroxy-5-isopropylphenyl)-5-hydroxy-4H-1,2,4-triazol-4-yl)benzyl)piperidin-1-yl)-N-(2-(2,6-dioxopiperidin-3-yl)-1-oxoisoindolin-4-yl)acetamide] | 159 nM
8 | CC(C)c1cc(-c2nnc(O)n2-c2ccc(CC(=O)N(C)CCOC(=O)Nc3cccc4c3CN(C3CCC(=O)NC3=O)C4=O)cc2)c(O)cc1O (stereo not drawn) [SDC-TRAP-0127, 2-(2-(4-(3-(2,4-dihydroxy-5-isopropylphenyl)-5-hydroxy-4H-1,2,4-triazol-4-yl)phenyl)-N-methylacetamido)ethyl(2-(2,6-dioxopiperidin-3-yl)-1-oxoisoindolin-4-yl)carbamate] | 102 nM
9 | CCNC(=O)c1nnc(-c2cc(C(C)C)c(O)cc2O)n1-c1ccc(CN2CCC(C(=O)N3CCC(n4cc(-c5cnc(N)c(O[C@H](C)c6c(Cl)ccc(F)c6Cl)c5)cn4)CC3)CC2)cc1 [SDC-TRAP-0134, (R)-4-(4-((4-(4-(4-(6-amino-5-(1-(2,6-dichloro-3-fluorophenyl)ethoxy)pyridin-3-yl)-1H-pyrazol-1-yl)piperidine-1-carbonyl)piperidin-1-yl)methyl)phenyl)-5-(2,4-dihydroxy-5-isopropylphenyl)-N-ethyl-4H-1,2,4-triazole-3-carboxamide] | 95.4 nM
10 | CCNC(=O)c1nnc(-c2cc(C(C)C)c(O)cc2O)n1-c1ccc(CN2CCC(C(=O)N3CCC(C(=O)N[C@H]4C[C@H](O[C@H]5C[C@](O)(C(=O)CO)Cc6c(O)c7c(c(O)c65)C(=O)c5c(OC)cccc5C7=O)O[C@@H](C)[C@H]4O)CC3)CC2)cc1 [SDC-TRAP-0198, 1-(1-(4-(3-(2,4-dihydroxy-5-isopropylphenyl)-5-(ethylcarbamoyl)-4H-1,2,4-triazol-4-yl)benzyl)piperidine-4-carbonyl)-N-((2S,3S,4S,6R)-3-hydroxy-2-methyl-6-(((1S,3S)-3,5,12-trihydroxy-3-(2-hydroxyacetyl)-10-methoxy-6,11-dioxo-1,2,3,4,6,11-hexahydrotetracen-1-yl)oxy)tetrahydro-2H-pyran-4-yl)piperidine-4-carboxamide] | 93.3 nM
11 | CCc1c2c(nc3ccc(OC(=O)N4CCC[C@H]4C(=O)N4CCN(c5ccc(-n6c(O)nnc6-c6cc(C(C)C)c(O)cc6O)cc5)CC4)cc13)-c1cc3c(c(=O)n1C2)COC(=O)[C@]3(O)CC [SDC-TRAP-0204, (S)—(S)-4,11-diethyl-4-hydroxy-3,14-dioxo-3,4,12,14-tetrahydro-1H-pyrano[3′,4′:6,7]indolizino[1,2-b]quinolin-9-yl 2-(4-(4-(3-(2,4-dihydroxy-5-isopropylphenyl)-5-hydroxy-4H-1,2,4-triazol-4-yl)phenyl)piperazine-1-carbonyl)pyrrolidine-1-carboxylate] | 82.6 nM
12 | CCNC(=O)c1nnc(-c2cc(C(C)C)c(O)cc2O)n1-c1ccc(OC2CCN(C(=O)[C@@H]3CCCN3C(=O)Oc3ccc4nc5c(c(CC)c4c3)Cn3c-5cc4c(c3=O)COC(=O)[C@]4(O)CC)CC2)cc1 [SDC-TRAP-0209] | 54.6 nM
13 | CCc1c2c(nc3ccc(OC(=O)N4CCC[C@H]4C(=O)N4CCC(CCn5ccc6cc(-n7c(O)nnc7-c7cc(C(C)C)c(O)cc7O)ccc65)CC4)cc13)-c1cc3c(c(=O)n1C2)COC(=O)[C@]3(O)CC [SDC-TRAP-0210] | 91 nM

system: HER2; experiment: Her2 degradation assay with BT-474 cell line (Example 12, FACS); type: cell-based, human; conditions: BT-474 cells
Description: HER2 has emerged as a key target for anticancer drugs due to its intrinsic involvement in the phosphatidylinositol-3-kinase-Akt/proteinkinase B (PI3K-Akt) and the mitogen-activated protein kinase (MAPK) pathways, both of which suppress apoptosis and promote tumor cell survival, gene transcription, angiogenesis, cellular proliferation, migration, mitosis, and differentiation. The degradation of HER2 is a measure of efficacy of anticancer therapeutics that target Hsp90. Accordingly, the SDC-TRAP molecules of the invention that comprise a binding moiety that binds Hsp90 were tested in the following HER2 degradation assay.
BT-474 cells (human breast cancer cell line ATCC HTB-20) were obtained from ATCC and seeded into 12-well tissue culture plates at 0.2×10^6/1.8 mL/well. […] Each test compound was titrated in 4-fold dilutions from 5 μM to 78 nM with DMSO and 200 μL of the titration was added to each well of the cell plate. The DMSO final concentration was 0.2%. Cells were incubated overnight at 37° C. in 5% CO2.
Media was decanted from the plate, cells were washed 1× in PBS. 400 μL trypsin (EDTA) per well was added and the cells were incubated for 2 to 3 minutes. […] The cytometer readout was normalized and the potency of each compound is evaluated with IC50 calculated with XL Fit software.

Row | SMILES | IC50
14 | CC(C)c1cc(-c2nnc(O)n2-c2ccc(CN3CCN(C(=O)CCn4cc(F)c(=O)[nH]c4=O)CC3)cc2)c(O)cc1O [SDC-TRAP-0049] | > 5000 nM

system: not listed separately; experiment: Tissue distribution of ganetespib in female CD-1 nu/nu mice bearing RERF human NSCLC xenografts; type: in vivo, mouse; conditions: 5 min time point
Procedure: Tissue Distribution of ganetespib in Female CD-1 nu/nu Mice Bearing RERF Human NSCLC Xenografts
To confirm the distribution of ganetespib in blood, livers, kidneys, brains, hearts, lungs and tumors after IV administration of ganetespib to female CD-1 nu/nu mice bearing RERF human NSCLC xenografts, and to examine metabolic profiles of ganetespib in plasma, red blood cells, and above tissues.
Animals: female CD-1 nu/nu mice bearing RERF human NSCLC xenografts (N=3/group)
Dosage: 50 mg/kg Dose level: 10 mL/kg Formulation: 10% DMSO, 18% Cremophor RH40, 3.6% dextrose solution (DRD) Bleeding time points: 5 min, 6, 24 hr Collected tissues: blood (plasma and red blood cells (RBC)), liver, kidneys, brain, heart, lung, tumor
Protein precipitation: 50 μL of 10 times diluted plasma or RBC+150 μL ACN (10 mM NH4OAc), vortexed and centrifuged at 10000 rpm for 8 min; 150 μL supernatant+150 μL water (10 mM NH4OAc)
Protein precipitation: 100 μL homogenized tissue (1:3 tissue:PBS buffer)+100 μL ACN (10 mM NH4OAc), vortexed and centrifuged at 10000 rpm for 8 min

Row | Mean concentration in plasma relative to RBC (times higher) | SMILES
15 | about 10 | CC(C)c1cc(-c2n[nH]c(=O)n2-c2ccc3c(ccn3C)c2)c(O)cc1O [ganetespib]
